Results from PMC6017477, “In Vitro ADME Properties of Two Novel Antimicrobial Peptoid-Based Compounds as Potential Agents against Canine Pyoderma” (Molecules : A Journal of Synthetic Chemistry and Natural …, 2018).
Non-standard residues stand in square brackets, D forms with d. Residues, ends and D or L forms follow the SMILES beside them. N(1-naphthylmethyl)Gly = O=C(O)CNCc1cccc2ccccc12; N(4-MeBn)Gly = Cc1ccc(CNCC(=O)O)cc1; NBuGly = CCCCNCC(=O)O; Nlys = NCCCCNCC(=O)O

Tests used:
pronase [1] = assay: in vitro; details: pronase from Streptomyces griseus, pH 8
in vitro [2] = details: Beagle, dog
Method: Plasma stability was determined by incubation of a known concentration of the peptoid/hybrid of interest with dog plasma up to 60 min at 37 °C and analyzing the concentration of the peptide in the supernatant by LC-MS/MS after protein precipitation. Results are presented as average of triplicates from a single donor.
Dog plasma was collected from a single Beagle dog at the research facilities of Zoetis Animal Health (Kalamazoo, MI, USA) and frozen immediately until use. […] Test compounds were added to plasma diluted 1:1 with PBS buffer pH 7.4 and preheated for 5 min at 37 °C. Samples were removed at 0, 5, 10, 20, 30, and 60 min. The reaction was stopped by protein precipitation by adding a 9:1 (v/v) ACN:MeOH mixture followed by centrifugation at 10,000 rpm for 5 min, and the remaining amount of intact test compounds in the supernatant was quantified via API Sciex 4000Q LC-MS/MS (Framingham, MA, USA) (coupled with an HPLC column to filter off the plasma proteins—see Supplementary Materials, Section S6) upon completion of the assay. Experiments were performed in quadruplicate.

dog plasma proteins [3] = assay: Plasma protein binding, rapid equilibrium dialysis; format: in vitro ADME
Method: (§1) The plasma protein binding properties of candidate drugs can influence their efficacy, safety, and distribution. The fraction of peptoid bound to proteins of plasma collected from dogs was determined using rapid equilibrium dialysis.
(§2) Plate inserts comprised two side-by-side chambers separated by a dialysis membrane (8K MWCO). The chambers contained […] plasma or 350 µL dialysis buffer (PBS buffer pH 7.4), respectively. Dogplasma lot was identical to the one used in the plasma stability assay. […] Plates were sealed and incubated at 37 °C for 4 h on a shaker. Each test was run in quadruplicate in dog plasma. Upon completion of the assay, the plasma protein binding was determined by protein precipitation with ACN of both plasma and PBS, and drug levels were quantified via LC-MS/MS as described above. The percentage of bound compounds was determined from peak areas using Equations (3) and (4):% free = (concentration buffer chamber/concentration plasma chamber) × 100%(3) % bound = 100% − % free(4)

[4] = Plasma protein binding, rapid equilibrium dialysis; format: in vitro ADME, dog; details: Beagle, dog; for recovery at 4 h, 30.8 µM: pH 7.4, % Average Recovery; for fraction unbound at 4 h, 30.8 µM: plasma
Method: as §1, §2

[5] = Day 0 versus Day 1, UV-UPLC
Method: 5-60% ACN in 2 minutes, 0.1% Formic Acid
(Waters Acquity UV-UPLC, C18 column, 2.1x54 mm, T=60°C, equilibration time= 0.1 min)
Table S4 Final gradient elution UV-UPLC method used for the LC-MS/MS experiments. %A and %B indicate the
percentage of the mobile phases mixed at the given time. […]

[6] = test system: Staphylococcus pseudintermedius; format: cell-based; details: irrespective of the strain being MSSP or MRSP; Mueller-Hinton broth, 35 °C, 16–20 h
Method: Assays were performed by microbroth dilution of test compounds in Mueller-Hinton broth (MHB) in microtiter plates (Corning 96-well clear polypropylene round bottom plates, non-treated) according to the Clinical and Laboratory Standard Institute guidelines. The compounds were tested in concentrations ranging from 1 to 64 μg/mL (1, 2, 4, 8, 16, 32, 64 μg/mL). Briefly, bacteria were streaked on blood agar plates and incubated overnight at 37 °C. From these plates, colonies were suspended in saline solution and adjusted by nephelometer to obtain turbidity equivalent to a 0.5 McFarland standard. The suspension was diluted 1:100 in sterile 0.9% (w/v) saline, and 50 μL of this suspension was transferred to each well of the microtiter plate containing 50 μL of peptide solution in water, resulting in a concentration of 5 × 10^5 CFU/well. The microtiter plate was sealed and incubated at 35 °C for 16–20 h. Results were read by visual inspection.

trypsin = target: T1, trypsin (Bos taurus, UniProt P00760); assay: Stability to proteases: trypsin
T1 sequence (P00760 24-246): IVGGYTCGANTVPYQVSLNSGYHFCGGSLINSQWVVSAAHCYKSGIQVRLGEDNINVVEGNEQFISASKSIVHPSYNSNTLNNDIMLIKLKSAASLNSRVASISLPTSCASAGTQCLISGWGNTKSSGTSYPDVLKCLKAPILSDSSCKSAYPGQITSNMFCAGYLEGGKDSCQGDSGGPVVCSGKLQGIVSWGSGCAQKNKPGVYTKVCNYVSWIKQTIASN
Method: Solutions, concentrations, and reaction temperatures were selected according to manufacturer’s recommendations for total peptide digestion. A stock solution of 1 mM trypsin was prepared in 1 mM Tris HCl buffer solution containing 20 mM Ca^2+. […] […] Chymotrypsin was solubilized at 10 mg/mL in 1 mM HCl solution containing 2 mM CaCl2. […] Chymotrypsin reaction was conducted in 100 mM Tris HCl containing 10 mM CaCl2, pH 7.8 at 30 °C. […] At time 0, 3, and 6 h, 50 µL aliquots were removed for RP-HPLC analysis (see supplementary Materials, Section S3).

α-chymotrypsin = α-chymotrypsin (Bos taurus, UniProt P00766)
Method: Solutions, concentrations, and reaction temperatures were selected according to manufacturer’s recommendations for total peptide digestion. A stock solution of 1 mM trypsin was prepared in 1 mM Tris HCl buffer solution containing 20 mM Ca^2+. […] Reaction was conducted at 37 °C for 6 h. Chymotrypsin was solubilized at 10 mg/mL in 1 mM HCl solution containing 2 mM CaCl2. […] Chymotrypsin reaction was conducted in 100 mM Tris HCl containing 10 mM CaCl2, pH 7.8 at 30 °C. […] At time 0, 3, and 6 h, 50 µL aliquots were removed for RP-HPLC analysis (see supplementary Materials, Section S3).

human red blood cells = format: cell-based; details: 37 °C, 1 h
Method: EC10 and EC50 values represent concentrations that result in 10 and 50% hemolysis, respectively. […] Briefly, two-fold serial dilutions (1 to 256 μg/mL) were incubated in PBS with a suspension of freshly withdrawn human red blood cells in PBS in 96-well v-shaped microtiter plates at 37 °C for 1 h covered with Microseal foil to avoid evaporation, and transferred to 96-well flat bottomed microtiter plates. The release of hemoglobin was detected by measuring the absorbance at 414 nm by a UV spectrophotometer (VERSAmax™ Tunable Microplate Reader, Molecular Devices, San José, CA, USA). PBS and melittin were used as negative and positive controls, respectively. All human blood samples were obtained after informed consent of the voluntary donors upon understanding of the research purposes, within local hospitals and according to local guidelines.

in vitro [7] = details: liver microsomes
Description: Liver microsomal assay is used to determine hepatic intrinsic clearance of a drug and identification and profile of metabolites across species. Evaluation of microsomal stability of compounds in different species is common procedure in the drug discovery process to evaluate different metabolites in case of instability.
Dog and human microsomes were obtained from XenoTech LLC (Kansas City, KS, USA) and reconstituted in buffer containing D-(L)-isocitrate trisodium salt and 10 U/mL isocitrate dehydrogenase type IV glycerol solution (procine). […] The reaction was initiated by adding NADPH and substrate to reconstituted microsomes. A final concentration of 1 µM substrate was incubated with 0.5 mg/mL microsomes in the presence of 1 mM NADP^+ in 100 mM PBS with 1 mM MgCl2. Samples were collected at 0, 5, 10, 20, 30, and 60 min. The reaction was conducted at 37 °C before termination by addition of ACN, and analysis was conducted by LC-MS/MS (similar to the method described above). Controls with no drug and with no microsome regeneration system (buffer only) were included. All samples were prepared in triplicate. The rate of degradation by metabolism was measured on the basis of the difference of substrate concentration remaining at every time point. Metabolic half-lives were calculated as mentioned above.

[8] = UV-UPLC detection limit 1 µg/L
Method: The experiment was repeated twice.
The experiment was conducted in duplicate.

in vitro [9] = format: cell-based; details: dog
Description: B1 and D2 were designed on the basis that the majority of antimicrobial peptides are cationic and hydrophobic. We envisaged that short linear peptide-peptoid hybrids consisting of cationic lysines and hydrophobic peptoid residues would result in derivatives with potent antibacterial activity and low cytotoxicity. […] Repeated experiments on different days with different human blood samples confirmed the results.

[10] = In vitro drug release from formulations, Franz cell with cellulose membrane; format: physicochemical
Method: Release was evaluated as function of the amount of peptide diffused through a cellulose membrane in the receptor of a Franz cell and detected via RP-HPLC from 0 to 8 h.
An oil-in-water cream and an ointment were prepared as described by Danish Health and Medicines Authority. For the oil-in-water cream, ingredients of the oil phase (Table 3) were melted on a water bath at 70 °C and mixed with the water phase, which was previously brought to boil and cooled down to 65–70 °C. The mixture was stirred until cooled. The ointment formulation was prepared by mixing melted Vaseline (80%) with paraffin oil (20%) on a water bath and allowed to cool under stirring. The cold method was used for preparation of the 20% (w/w) poloxamer gel, where the poloxamer powder was dissolved in purified water at 4 °C and subsequently left overnight at 2–8 °C to stabilize. All formulations were stored at 4 °C for maximum seven days before use. […] For the hydrogel, the compounds dissolved in water were mixed with the cold poloxamer solution before gelling at room temperature.
Approximately 200 µL of each formulation was filled into the donor chambers of the Franz cells via a 1 mL syringe ensuring contact with the cellulose membrane separating the donor compartment from the receptor compartment. The donor compartment was maintained at room temperature (25 ± 1 °C) and the membrane diffusion area was 1.57 cm^2. […] The receptor medium (3 mL PBS, pH 7.4) was stirred using magnetic stirring and thermo-regulated to 36 °C by a water jacket. Samples (200 μL) were collected from the receptor compartment through the sampling port over 8 h, and the withdrawn volume was replaced with an equal volume of buffer at every time point. The samples were analyzed by a Waters 600E RP-HPLC equipped with Empower 3 software (Waters Corporation, Milford, MA, USA): 30 min run time with 20 min linear gradient from 0.1% (v/v) TFA in water to 30% (v/v) ACN:H2O with 0.1% (v/v) TFA (90:10). […] Experiments were performed in duplicate.

pronase [11] = details: 37 °C, RP-HPLC peak areas
dog plasma proteins [12] = details: stated in the method for the control; no reference given; cited from earlier work
[13] = Beagle, dog, 4 h, 30.8 µM, pH 7.4
[14] = pH 7.4, % Unbound (free fraction)
[15] = dog plasma, 4 h incubation, 37 °C

SMILES: CCCCN(CC(=O)N[C@@H](CCCCN)C(=O)N(CC(=O)N(CC(=O)N(CC(N)=O)Cc1cccc2ccccc12)Cc1ccc(C)cc1)Cc1cccc2ccccc12)C(=O)[C@H](CCCCN)NC(=O)[C@@H](N)CCCCN [Compound B1] (H-KK[NBuGly]K[N(1-naphthylmethyl)Gly][N(4-MeBn)Gly][N(1-naphthylmethyl)Gly]-NH2)
- metabolised at 24 h, 0.2 µM (pronase [1]): 38%
- half-life (in vitro [2]; dog plasma diluted 1:1 with PBS, pH 7.4, Half-life in plasma (dog), dog plasma, 37 °C, incubation up to 60 min, LC-MS/MS): ~0.5 h
- half-life (in vitro [2]; dog plasma diluted 1:1 with PBS, pH 7.4, stability to plasma proteases (half-life), in hours): 0.5 h
- % Average Recovery (dog plasma proteins [3]; [13]): 75.6%
- recovery at 4 h, 30.8 µM [4]: > 70%
- fraction unbound at 4 h, 30.8 µM [4, 14]: 0.0016
- stability in 50% transcutol in acetate buffer pH 5 [5]: stable
- Minimum inhibitory concentration (MIC) [6]: 2 to 4 µg/mL
- metabolised at 24 h, 1 mg/mL (trypsin; isolated enzyme trypsin): 6%
- degradation after α-chymotrypsin exposure (α-chymotrypsin): no degradation
- EC50, concentration resulting in 50% hemolysis of erythrocytes (human red blood cells): 219 µg/mL
- half-life at 1 µM (in vitro [7]; dog): > 2 h
- half-life at 1 µM (in vitro [7]; human): > 2 h
- remaining at 1 h, 1 µM (in vitro [7]): 100%
- skin penetration from 50% transcutol formulation after 24 h [8]: No penetration
- hemolysis at 150 µM (in vitro [9]): 45%

SMILES: CCCCN(CC(N)=O)C(=O)CN(CCCCN)C(=O)CN(Cc1cccc2ccccc12)C(=O)CN(CCCCN)C(=O)CN(Cc1ccc(C)cc1)C(=O)CN(Cc1cccc2ccccc12)C(=O)CN(CCCCN)C(=O)CNCCCCN [Compound D2] (H-[Nlys][Nlys][N(1-naphthylmethyl)Gly][N(4-MeBn)Gly][Nlys][N(1-naphthylmethyl)Gly][Nlys][NBuGly]-NH2)
- metabolised at 24 h, 0.2 µM (pronase [1]): 0.2%
- half-life (in vitro [2]; plasma, pH 7.4, Half-life in plasma (dog), dog plasma, 37 °C, incubation up to 60 min, LC-MS/MS): > 2 h
- % Average Recovery (dog plasma proteins [3]; [13]): 70.8%
- Bound to plasma proteins (dog plasma proteins [3]; Beagle, dog, plasma, 4 h, 30.8 µM, pH 7.4): 98.6%
- recovery at 4 h, 30.8 µM [4]: > 70%
- fraction unbound at 4 h, 30.8 µM [4, 14]: 0.0143
- fraction unbound at 4 h, 30.8 µM ([4]; pH 7.4, Bound to plasma proteins): < 0.02
- Minimum inhibitory concentration (MIC) [6]: 2 to 4 µg/mL
- degradation after 24 h of incubation with trypsin (trypsin): no degradation
- degradation after α-chymotrypsin exposure (α-chymotrypsin): no degradation
- release from 20% poloxamer gel after eight hours ([10]; 20% poloxamer gel, 8 h): no detectable release
- release kinetics from oil-in-water cream ([10]; oil-in-water cream): zero-order kinetics
- release from ointment after eight hours ([10]; ointment, 8 h): no detectable release
- half-life (in vitro [7]; dog): > 2 h
- half-life (in vitro [7]; human): > 2 h
- remaining at 1 h, 1 µM (in vitro [7]): 77%
- degradation after 24 h incubation with pronase (pronase [11]): shows stability
- hemolysis at 150 µM (in vitro [9]): 22%

SMILES: CS(=O)(=O)CC(=O)N1CC2(C1)OCc1cc(C3=NO[C@@](c4cc(Cl)c(F)c(Cl)c4)(C(F)(F)F)C3)ccc12 [Control, sarolaner, reference compound]
- % Unbound (free fraction) (dog plasma proteins [3]; [15]): 0.27%
- Bound to plasma proteins (dog plasma proteins [3]; [15]): 99.7%
- % Average Recovery (dog plasma proteins [3]; dog plasma, 4 h incubation, n = 4): 67.1%
- protein bound (known value of the control compound) (dog plasma proteins [12]): > 99%
